Reference: ChEMBL document CHEMBL4425161, “1α,2α-Epoxy-3β-hydroxy oleanolic acid derivatives regulation of the metabolism, haemolysis and β-lactamase gene expression in vitro and their structure-microbicidal activity relationship” (2016)
Values after ≈ are worked out from the molar mass of the structure shown. Active and inactive are the calls of the source. The calls are words filed in the database; no cut-off is given here.

Key:
Klebsiella pneumoniae [1] = assay: Upregulation of IMP gene expression in Klebsiella pneumoniae ATCC BAA-1705 at 50 umol/L after 8 hrs by real time RT-PCR; type: functional, organism-based
Klebsiella pneumoniae [2] = assay: Upregulation of PER-2 gene expression in Klebsiella pneumoniae ATCC BAA-1705 at 50 umol/L after 8 hrs by real time RT-PCR; type: functional, organism-based
Klebsiella pneumoniae [3] = assay: Upregulation of GES gene expression in Klebsiella pneumoniae ATCC BAA-1705 at 50 umol/L after 8 hrs by semi-quantitative RT-PCR; type: functional, organism-based
Klebsiella pneumoniae [4] = assay: Upregulation of IMP gene expression in Klebsiella pneumoniae ATCC BAA-1705 at 50 umol/L after 8 hrs by semi-quantitative RT-PCR; type: functional, organism-based
Klebsiella pneumoniae [5] = assay: Antibacterial activity against Klebsiella pneumoniae ATCC BAA-1705 assessed as bacterial growth inhibition at 50 umol/L after 8 hrs by turbidimetric plate reader method; type: functional, organism-based
Klebsiella pneumoniae [6] = assay: Downregulation of ldhD gene expression in Klebsiella pneumoniae ATCC BAA-1705 at 50 umol/L after 8 hrs by semi-quantitative RT-PCR; type: functional, organism-based
Escherichia coli [7] = assay: Antibacterial activity against Escherichia coli ATCC 25922 assessed as bacterial growth inhibition after 8 hrs by turbidimetric plate reader method; type: functional; settings: for MBC: ATCC 25922, 8 h
Klebsiella pneumoniae [8] = assay: Antibacterial activity against Klebsiella pneumoniae ATCC BAA-1705 assessed as bacterial growth inhibition after 8 hrs by turbidimetric plate reader method; type: functional; settings: for MBC: ATCC BAA-1705, 8 h
Klebsiella pneumoniae [9] = assay: Upregulation of VEB gene expression in Klebsiella pneumoniae ATCC BAA-1705 at 50 umol/L after 8 hrs by semi-quantitative RT-PCR; type: functional, organism-based
Klebsiella pneumoniae [10] = assay: Downregulation of ldhD gene expression in Klebsiella pneumoniae ATCC BAA-1705 at 50 umol/L after 8 hrs by real time RT-PCR; type: functional, organism-based
Klebsiella pneumoniae [11] = assay: Upregulation of GES gene expression in Klebsiella pneumoniae ATCC BAA-1705 at 50 umol/L after 8 hrs by real time RT-PCR; type: functional, organism-based
Acinetobacter baumannii [12] = assay: Antibacterial activity against Acinetobacter baumannii ATCC BAA-1710D assessed as bacterial growth inhibition after 8 hrs by turbidimetric plate reader method; type: functional
Klebsiella pneumoniae [13] = assay: Upregulation of VEB gene expression in Klebsiella pneumoniae ATCC BAA-1705 at 50 umol/L after 8 hrs by real time RT-PCR; type: functional, organism-based
Bacillus subtilis [14] = assay: Antibacterial activity against Bacillus subtilis ATCC 6051 assessed as bacterial growth inhibition after 8 hrs by turbidimetric plate reader method; type: functional; settings: for MBC: ATCC 6051, 8 h
Klebsiella pneumoniae [15] = assay: Upregulation of PER-2 gene expression in Klebsiella pneumoniae ATCC BAA-1705 at 50 umol/L after 8 hrs by semi-quantitative RT-PCR; type: functional, organism-based
Bacillus subtilis [16] = assay: Downregulation of yhdT gene expression in Bacillus subtilis ATCC 6051 at 50 umol/L after 8 hrs by semi-quantitative RT-PCR; type: functional, organism-based
Escherichia coli [17] = assay: Downregulation of tsh gene expression in Escherichia coli ATCC 25922 at 50 umol/L after 8 hrs by semi-quantitative RT-PCR; type: functional, organism-based
Escherichia coli [18] = assay: Downregulation of tsh gene expression in Escherichia coli ATCC 25922 at 50 umol/L after 8 hrs by real time RT-PCR; type: functional, organism-based
Bacillus subtilis [19] = assay: Downregulation of yhdT gene expression in Bacillus subtilis ATCC 6051 at 50 umol/L after 8 hrs by real time RT-PCR; type: functional, organism-based
Escherichia coli [20] = assay: Antibacterial activity against Escherichia coli ATCC 25922 assessed as bacterial growth inhibition at 50 umol/L after 8 hrs by turbidimetric plate reader method; type: functional, organism-based
Bacillus subtilis [21] = assay: Downregulation of yqhB gene expression in Bacillus subtilis ATCC 6051 at 50 umol/L after 8 hrs by real time RT-PCR; type: functional, organism-based
Escherichia coli [22] = assay: Upregulation of acrA gene expression in Escherichia coli ATCC 25922 at 50 umol/L after 8 hrs by real time RT-PCR relative to gapA; type: functional, organism-based
Escherichia coli [23] = assay: Upregulation of acrA gene expression in Escherichia coli ATCC 25922 at 50 umol/L after 8 hrs by semi-quantitative RT-PCR; type: functional, organism-based
Escherichia coli [24] = assay: Downregulation of iroD gene expression in Escherichia coli ATCC 25922 at 50 umol/L after 8 hrs by semi-quantitative RT-PCR; type: functional, organism-based
Bacillus subtilis [25] = assay: Downregulation of yqhC gene expression in Bacillus subtilis ATCC 6051 at 50 umol/L after 8 hrs by real time RT-PCR; type: functional, organism-based
Escherichia coli [26] = assay: Upregulation of cysB gene expression in Escherichia coli ATCC 25922 at 50 umol/L after 8 hrs by real time RT-PCR; type: functional, organism-based
Bacillus subtilis [27] = assay: Downregulation of yqhB gene expression in Bacillus subtilis ATCC 6051 at 50 umol/L after 8 hrs by semi-quantitative RT-PCR; type: functional, organism-based
Bacillus subtilis [28] = assay: Antibacterial activity against Bacillus subtilis ATCC 6051 assessed as bacterial growth inhibition at 50 umol/L after 8 hrs by turbidimetric plate reader method; type: functional, organism-based
Escherichia coli [29] = assay: Upregulation of cysB gene expression in Escherichia coli ATCC 25922 at 50 umol/L after 8 hrs by semi-quantitative RT-PCR; type: functional, organism-based
Escherichia coli [30] = assay: Downregulation of iroD gene expression in Escherichia coli ATCC 25922 at 50 umol/L after 8 hrs by real time RT-PCR; type: functional, organism-based
Bacillus subtilis [31] = assay: Downregulation of yqhC gene expression in Bacillus subtilis ATCC 6051 at 50 umol/L after 8 hrs by semi-quantitative RT-PCR; type: functional, organism-based
Acinetobacter baumannii [32] = assay: Upregulation of SHV gene expression in Acinetobacter baumannii ATCC BAA-1710D at 50 umol/L after 8 hrs by semi-quantitative RT-PCR; type: functional, organism-based
Acinetobacter baumannii [33] = assay: Upregulation of CARB gene expression in Acinetobacter baumannii ATCC BAA-1710D at 50 umol/L after 8 hrs by real time RT-PCR; type: functional, organism-based
Acinetobacter baumannii [34] = assay: Upregulation of CARB gene expression in Acinetobacter baumannii ATCC BAA-1710D at 50 umol/L after 8 hrs by semi-quantitative RT-PCR; type: functional, organism-based
Acinetobacter baumannii [35] = assay: Upregulation of TEM gene expression in Acinetobacter baumannii ATCC BAA-1710D at 50 umol/L after 8 hrs by real time RT-PCR; type: functional, organism-based
Acinetobacter baumannii [36] = assay: Upregulation of VEB gene expression in Acinetobacter baumannii ATCC BAA-1710D at 50 umol/L after 8 hrs by semi-quantitative RT-PCR; type: functional, organism-based
Acinetobacter baumannii [37] = assay: Antibacterial activity against Acinetobacter baumannii ATCC BAA-1710D assessed as bacterial growth inhibition at 50 umol/L after 8 hrs by turbidimetric plate reader method; type: functional, organism-based
Acinetobacter baumannii [38] = assay: Upregulation of TEM gene expression in Acinetobacter baumannii ATCC BAA-1710D at 50 umol/L after 8 hrs by semi-quantitative RT-PCR; type: functional, organism-based
Acinetobacter baumannii [39] = assay: Upregulation of VEB gene expression in Acinetobacter baumannii ATCC BAA-1710D at 50 umol/L after 8 hrs by real time RT-PCR; type: functional, organism-based
Acinetobacter baumannii [40] = assay: Downregulation of PER gene expression in Acinetobacter baumannii ATCC BAA-1710D at 50 umol/L after 8 hrs by semi-quantitative RT-PCR; type: functional, organism-based
Acinetobacter baumannii [41] = assay: Downregulation of PER gene expression in Acinetobacter baumannii ATCC BAA-1710D at 50 umol/L after 8 hrs by real time RT-PCR; type: functional, organism-based
Acinetobacter baumannii [42] = assay: Upregulation of SHV gene expression in Acinetobacter baumannii ATCC BAA-1710D at 50 umol/L after 8 hrs by real time RT-PCR; type: functional, organism-based
Acinetobacter baumannii [43] = assay: Downregulation of GES gene expression in Acinetobacter baumannii ATCC BAA-1710D at 50 umol/L after 8 hrs by real time RT-PCR; type: functional, organism-based
Acinetobacter baumannii [44] = assay: Downregulation of GES gene expression in Acinetobacter baumannii ATCC BAA-1710D at 50 umol/L after 8 hrs by semi-quantitative RT-PCR; type: functional, organism-based

Compound: CCOC(=O)[C@]12CCC(C)(C)C[C@H]1C1=CC[C@@H]3[C@@]4(C)[C@H]5O[C@H]5[C@H](O)C(C)(C)[C@@H]4CC[C@@]3(C)[C@]1(C)CC2
- Activity (Klebsiella pneumoniae [1]): Active
- Activity (Klebsiella pneumoniae [2]): Active
- Activity (Klebsiella pneumoniae [3]): inactive
- Activity (Klebsiella pneumoniae [4]): Active
- growth inhibition (GI) (Klebsiella pneumoniae [5]): Active
- Activity (Klebsiella pneumoniae [6]): Active
- growth inhibition (GI) (Escherichia coli [7]): Dose-dependent effect
- growth inhibition (GI) (Klebsiella pneumoniae [8]): Dose-dependent effect
- MBC (Klebsiella pneumoniae [8]): 1.8 µM (≈ 0.898 µg/mL)
- Activity (Klebsiella pneumoniae [9]): Active
- Activity (Klebsiella pneumoniae [10]): Active
- Activity (Klebsiella pneumoniae [11]): inactive
- growth inhibition (GI) (Acinetobacter baumannii [12]): Dose-dependent effect
- Activity (Klebsiella pneumoniae [13]): Active
- growth inhibition (GI) (Bacillus subtilis [14]): Dose-dependent effect
- Activity (Klebsiella pneumoniae [15]): Active

Compound: CC1(C)CC[C@]2(C(=O)OCc3ccccc3C#N)CC[C@]3(C)C(=CC[C@@H]4[C@@]5(C)[C@H]6O[C@H]6[C@H](O)C(C)(C)[C@@H]5CC[C@]43C)[C@@H]2C1
- Activity (Bacillus subtilis [16]): Active
- Activity (Escherichia coli [17]): Active
- Activity (Escherichia coli [18]): Active
- Activity (Bacillus subtilis [19]): Active
- growth inhibition (GI) (Escherichia coli [7]): Dose-dependent effect
- MBC (Escherichia coli [7]): 5.3 µM (≈ 3.1 µg/mL)
- growth inhibition (GI) (Escherichia coli [20]): Active
- growth inhibition (GI) (Klebsiella pneumoniae [8]): Dose-dependent effect
- Activity (Bacillus subtilis [21]): Active
- Activity (Escherichia coli [22]): Active
- Activity (Escherichia coli [23]): Active
- Activity (Escherichia coli [24]): Active
- Activity (Bacillus subtilis [25]): Active
- Activity (Escherichia coli [26]): Active
- Activity (Bacillus subtilis [27]): Active
- growth inhibition (GI) (Acinetobacter baumannii [12]): Dose-dependent effect
- growth inhibition (GI) (Bacillus subtilis [14]): Dose-dependent effect
- MBC (Bacillus subtilis [14]): 2 µM (≈ 1.17 µg/mL)
- growth inhibition (GI) (Bacillus subtilis [28]): Active
- Activity (Escherichia coli [29]): Active
- Activity (Escherichia coli [30]): Active
- Activity (Bacillus subtilis [31]): Active

Compound: CCCOC(=O)[C@]12CCC(C)(C)C[C@H]1C1=CC[C@@H]3[C@@]4(C)[C@H]5O[C@H]5[C@H](O)C(C)(C)[C@@H]4CC[C@@]3(C)[C@]1(C)CC2
- Activity (Klebsiella pneumoniae [1]): Active
- Activity (Klebsiella pneumoniae [2]): Active
- Activity (Klebsiella pneumoniae [3]): inactive
- Activity (Klebsiella pneumoniae [4]): Active
- growth inhibition (GI) (Klebsiella pneumoniae [5]): Active
- Activity (Klebsiella pneumoniae [6]): Active
- growth inhibition (GI) (Escherichia coli [7]): Dose-dependent effect
- growth inhibition (GI) (Klebsiella pneumoniae [8]): Dose-dependent effect
- MBC (Klebsiella pneumoniae [8]): 1.5 µM (≈ 0.769 µg/mL)
- Activity (Klebsiella pneumoniae [9]): Active
- Activity (Klebsiella pneumoniae [10]): Active
- Activity (Klebsiella pneumoniae [11]): inactive
- growth inhibition (GI) (Acinetobacter baumannii [12]): Dose-dependent effect
- Activity (Klebsiella pneumoniae [13]): Active
- growth inhibition (GI) (Bacillus subtilis [14]): Dose-dependent effect
- Activity (Klebsiella pneumoniae [15]): Active

Compound: NC[C@H]1O[C@H](O[C@H]2[C@H](O)[C@@H](O[C@H]3O[C@H](CO)[C@@H](O)[C@H](N)[C@H]3O)[C@H](N)C[C@@H]2N)[C@H](O)[C@@H](O)[C@@H]1O [KANAMYCIN]
- MBC (Acinetobacter baumannii [12]): 1.6 µM (≈ 0.775 µg/mL)

Compound: CC(=O)O[C@H]1[C@@H]2O[C@@H]2[C@]2(C)[C@H]3CC=C4[C@@H]5CC(C)(C)CC[C@]5(C(=O)O)CC[C@@]4(C)[C@]3(C)CC[C@H]2C1(C)C
- Activity (Acinetobacter baumannii [32]): Active
- Activity (Acinetobacter baumannii [33]): Active
- Activity (Acinetobacter baumannii [34]): Active
- Activity (Acinetobacter baumannii [35]): Active
- Activity (Acinetobacter baumannii [36]): Active
- growth inhibition (GI) (Escherichia coli [7]): Dose-dependent effect
- growth inhibition (GI) (Acinetobacter baumannii [37]): Active
- Activity (Acinetobacter baumannii [38]): Active
- Activity (Acinetobacter baumannii [39]): Active
- growth inhibition (GI) (Klebsiella pneumoniae [8]): Dose-dependent effect
- Activity (Acinetobacter baumannii [40]): Active
- Activity (Acinetobacter baumannii [41]): Active
- Activity (Acinetobacter baumannii [42]): Active
- Activity (Acinetobacter baumannii [43]): Active
- Activity (Acinetobacter baumannii [44]): Active
- MBC (Acinetobacter baumannii [12]): 2.8 µM (≈ 1.44 µg/mL)
- growth inhibition (GI) (Acinetobacter baumannii [12]): Dose-dependent effect
- growth inhibition (GI) (Bacillus subtilis [14]): Dose-dependent effect

Compound: CC1(C)S[C@@H]2[C@H](NC(=O)[C@H](N)c3ccccc3)C(=O)N2[C@H]1C(=O)O [AMPICILLIN]
- MBC (Escherichia coli [7]): 1.8 µM (≈ 0.629 µg/mL)

Compound: CN[C@@H]1[C@H](O[C@H]2[C@H](O[C@H]3[C@H](O)[C@@H](O)[C@H](N=C(N)N)[C@@H](O)[C@@H]3N=C(N)N)O[C@@H](C)[C@]2(O)C=O)O[C@@H](CO)[C@H](O)[C@H]1O [STREPTOMYCIN]
- MBC (Klebsiella pneumoniae [8]): 1.3 µM (≈ 0.756 µg/mL)
- MBC (Bacillus subtilis [14]): 2.1 µM (≈ 1.22 µg/mL)

Compound: CO[C@H]1[C@@H]2O[C@@H]2[C@]2(C)[C@H]3CC=C4[C@@H]5CC(C)(C)CC[C@]5(C(=O)O)CC[C@@]4(C)[C@]3(C)CC[C@H]2C1(C)C
- growth inhibition (GI) (Klebsiella pneumoniae [5]): inactive
- growth inhibition (GI) (Acinetobacter baumannii [37]): inactive
- growth inhibition (GI) (Escherichia coli [20]): inactive
- growth inhibition (GI) (Bacillus subtilis [28]): inactive
